In data set [1] the test system is Human Embryonic Kidney cells (HEK 293). The following applies: for IC50: read-out: Toxicity IC50 HEK293.
Another data set concerns Mtb H37Rv. As to the kind of experiment: microbe, parasite or virus in culture. In kind it is cell-based, Mycobacterium tuberculosis.
In data set [2] the test system is Normal Lung Fibroblasts (IMR-90). The data set is classed as cell-based, human. The following applies: read-out: Toxicity IC50 IMR-90.
For data set [3], the system named is Human non-tumorigenic lung epithelial cells (BEAS-2B). In kind it is cell-based. The following applies: read-out: Toxicity IC50 BEAS-2B.
The conditions of data set [4]: 6.0 × 10^–5 M in DMSO and 28% ethanol-water, 24 h, 25 °C.
Setting [5] is: MABA, Mtb H37Rv, one week at 37 °C.

This is an account of results in paper PMC9609273 (Pharmaceuticals, 2022).

Converted amounts (≈) assume the structure as drawn. Where two headings read alike, the source gives them in different places.

What is called IC50 is the concentration needed to halve the response being measured.

As for “3-((2-Isonicotinoylhydrazono)methyl)phenyl quinoline-8-sulfonate [SIH13]”, the values for the concentration for half-maximal inhibition (IC50) in data set [1], in data set [2] and in data set [3] were 58.3 µM, 100 µM and greater than 100 µM, respectively. The compound also had an MIC with Mtb H37Rv of 0.31 µM.
On to “3-((2-Isonicotinoylhydrazono)methyl)phenyl 2,5-dichlorobenzenesulfonate [SIH8]”, for which the concentration for half-maximal inhibition (IC50) in data set [1] (MTT, 48 h, triplicate) was greater than 100 µM; in data set [2] (MTT, 48 h, triplicate), 100 µM; in data set [3] (MTT, 48 h, triplicate), greater than 100 µM. Besides, the MIC against Mtb H37Rv (setting [5]) was 0.62 µM.
As to “3-((2-Isonicotinoylhydrazono)methyl)phenyl 4-methylbenzenesulfonate [SIH1]”, the “Cytotoxicity against HEK293 (in words)” value in data set [1] (MTT) was “moderately toxic”. Moreover, the IC50 was 57.2 µM in data set [1] (MTT, 48 h, triplicate); greater than 100 µM in data set [2] (MTT, 48 h, triplicate); greater than 100 µM in data set [3] (MTT, 48 h, triplicate). This compound returned an MIC against Mtb H37Rv (setting [5]) of 0.31 µM. Besides, the “Change in λmax values (stability of hydrazone)” value (shortened to “Change in λmax values”) in data set [4] is recorded as “no significant change in λmax values”.
Turning to “3-((2-Isonicotinoylhydrazono)methyl)phenyl 4-methoxybenzenesulfonate [SIH4]”, in data set [1] (MTT), the “Cytotoxicity against HEK293 (in words)” value is “moderately toxic”. The half-maximal inhibitory concentration (IC50) in data set [1] (MTT, 48 h, triplicate) is 40.8 µM; in data set [2] (MTT, 48 h, triplicate), greater than 100 µM; in data set [3] (MTT, 48 h, triplicate), greater than 100 µM. This compound showed an MIC in the data set on Mtb H37Rv (setting [5]) of 0.31 µM. Moreover, in data set [4], the “Change in λmax values” value was “no significant change in λmax values”.
Consider “3-((2-Isonicotinoylhydrazono)methyl)phenyl 4-nitrobenzenesulfonate [SIH9]”, for which the half-maximal inhibitory concentration (IC50) in data set [1] (MTT, 48 h, triplicate) is 100 µM; in data set [2] (MTT, 48 h, triplicate), greater than 100 µM; in data set [3] (MTT, 48 h, triplicate) it was greater than 100 µM. Further, the MIC against Mtb H37Rv (setting [5]) is listed as 0.62 µM.
For “3-((2-Isonicotinoylhydrazono)methyl)phenyl 4-bromobenzenesulfonate [SIH5]”, the concentration for half-maximal inhibition (IC50) was 100 µM in data set [1] (MTT, 48 h, triplicate); 90.3 µM in data set [2] (MTT, 48 h, triplicate); greater than 100 µM in data set [3] (MTT, 48 h, triplicate). The compound also displayed an MIC against Mtb H37Rv (setting [5]) of 0.62 µM.
For “3-((2-Isonicotinoylhydrazono)methyl)phenyl 3-nitrobenzenesulfonate [SIH10]” the same measures were greater than 100 µM, greater than 100 µM, greater than 100 µM and 0.62 µM.
For “3-((2-Isonicotinoylhydrazono)methyl)phenyl 4-acetamidobenzenesulfonate [SIH11]”, the IC50 in data set [1] (MTT, 48 h, triplicate) was greater than 100 µM; in data set [2] (MTT, 48 h, triplicate), greater than 100 µM; in data set [3] (MTT, 48 h, triplicate), greater than 100 µM. In the data set with Mtb H37Rv (setting [5]), the MIC came out at 0.62 µM.
Turning to “3-((2-Isonicotinoylhydrazono)methyl)phenyl 2,4,6-trimethylbenzenesulfonate [SIH3]”, the IC50 is 100 µM in data set [1] (MTT, 48 h, triplicate); greater than 100 µM in data set [2] (MTT, 48 h, triplicate); greater than 100 µM in data set [3] (MTT, 48 h, triplicate). In addition, the MIC against Mtb H37Rv (setting [5]) worked out at 0.62 µM.
With “3-((2-Isonicotinoylhydrazono)methyl)phenyl 4-chlorobenzenesulfonate [SIH6]”, the IC50 was greater than 100 µM in data set [1] (MTT, 48 h, triplicate); greater than 100 µM in data set [2] (MTT, 48 h, triplicate); greater than 100 µM in data set [3] (MTT, 48 h, triplicate). Further, in the data set on Mtb H37Rv (setting [5]), the MIC worked out at 0.62 µM.
In the data set with Mtb H37Rv (Mycobacterium tuberculosis, 168 h, MABA, Mtb H37Rv, one week at 37 °C), `NNC(=O)c1ccncc1` [Isoniazid, isonicotinic acid hydrazide, reference compound] returned an MIC of 0.31 µM (≈ 0.0425 µg/mL).
With “3-((2-Isonicotinoylhydrazono)methyl)phenyl 4-iodobenzenesulfonate [SIH7]”, the IC50 is greater than 100 µM in data set [1] (MTT, 48 h, triplicate); 100 µM in data set [2] (MTT, 48 h, triplicate); greater than 100 µM in data set [3] (MTT, 48 h, triplicate). In the data set on Mtb H37Rv (setting [5]), this compound came in with an MIC of 0.62 µM.
Consider “3-((2-Isonicotinoylhydrazono)methyl)phenyl 4-(tert-butyl)benzenesulfonate [SIH2]”, for which the IC50 in data set [1] (MTT, 48 h, triplicate) was greater than 100 µM; in data set [2] (MTT, 48 h, triplicate), 89.5 µM; in data set [3] (MTT, 48 h, triplicate), greater than 100 µM. In addition, in the data set with Mtb H37Rv (setting [5]), the MIC was 0.62 µM.
In the case of “3-((2-Isonicotinoylhydrazono)methyl)phenyl [1,1′-biphenyl]-4-sulfonate [SIH12]”, in data set [1] (MTT), the “Cytotoxicity against HEK293 (in words)” value was “moderately toxic”. The concentration for half-maximal inhibition (IC50) in data set [1] (MTT, 48 h, triplicate) is 52.4 µM; in data set [2] (MTT, 48 h, triplicate), 57.7 µM; in data set [3] (MTT, 48 h, triplicate) it was greater than 100 µM. In addition, the MIC against Mtb H37Rv (setting [5]) amounted to 0.31 µM. In addition, the “Change in λmax values” value in data set [4] is on record as “no significant change in λmax values”.
